Data published in ChEMBL document CHEMBL1201862, “PubChem BioAssay data set” (2004).
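48-hour exposure; five concentrations; linearly interpolated endpoints. At the GI50, growth is halved.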 Activity calls are given as the source filed them. No stated cut-off is given here; in the data, active = GI50 up to about 1.1 µM and inactive = higher.

Legend:
Assay in all cases: NCI-60 cell line screen, 48 h
HL-60 = tested on: HL-60
COLO 205 = tested on: COLO 205
SF-295 = tested on: SF-295
HCC 2998 = tested on: HCC 2998
SK-MEL-2 = tested on: SK-MEL-2
LOX IMVI = tested on: LOX IMVI
UACC-257 = tested on: UACC-257
HOP-92 = tested on: HOP-92
SW-620 = tested on: SW-620
SN12C = tested on: SN12C
786-0 = tested on: 786-0
SF-268 = tested on: SF-268
OVCAR-3 = tested on: OVCAR-3
RPMI-8226 = tested on: RPMI-8226
OVCAR-4 = tested on: OVCAR-4
SK-MEL-5 = tested on: SK-MEL-5
NCI-H522 = tested on: NCI-H522
EKVX = tested on: EKVX
NCI-H460 = tested on: NCI-H460
MDA-MB-231 = tested on: MDA-MB-231

Measured: GI50

C1OC1C1CO1 (stereo not drawn)
inactive: HL-60 3.14 µM | COLO 205 > 100 µM | SF-295 10.3 µM | HCC 2998 96.4 µM | SK-MEL-2 > 100 µM | LOX IMVI 21.1 µM | UACC-257 27.9 µM | HOP-92 > 100 µM | SW-620 86.3 µM | SN12C 93.1 µM | 786-0 24.2 µM | SF-268 6.43 µM | OVCAR-3 39.7 µM | RPMI-8226 > 100 µM | OVCAR-4 > 100 µM | SK-MEL-5 45.2 µM | NCI-H522 33.6 µM | EKVX > 100 µM

COc1ccc2[nH]c3c(C)c4c(c(C)c3c2c1)CN(C)CC4
inactive: HL-60 2.09 µM | COLO 205 17.4 µM | SF-295 18.8 µM | HCC 2998 16.9 µM | SK-MEL-2 17.2 µM | LOX IMVI 13.7 µM | UACC-257 17.7 µM | HOP-92 16.9 µM | SW-620 4.21 µM | SN12C 16.3 µM | 786-0 14.6 µM | SF-268 18.9 µM | OVCAR-3 16 µM | NCI-H460 11.6 µM | RPMI-8226 4.69 µM | OVCAR-4 19 µM | SK-MEL-5 17.5 µM | NCI-H522 18 µM

Cc1cc2c3ccccc3n3c2c2c1OC1(C)CCC(C2C1)C3(C)C (stereo not drawn)
inactive: HL-60 > 25 µM | COLO 205 > 25 µM | HCC 2998 > 25 µM | SK-MEL-2 > 25 µM | LOX IMVI > 25 µM | HOP-92 > 25 µM | SW-620 > 25 µM | SN12C > 25 µM | 786-0 > 25 µM | SF-268 > 25 µM | OVCAR-3 > 25 µM | NCI-H460 > 25 µM | RPMI-8226 > 25 µM | OVCAR-4 > 25 µM | SK-MEL-5 > 25 µM | NCI-H522 > 25 µM

N[C@H](COCc1ccccc1)c1ccccc1
inactive: HL-60 11.9 µM | COLO 205 14.9 µM | SF-295 30.5 µM | HCC 2998 29.9 µM | SK-MEL-2 21.1 µM | LOX IMVI 29.3 µM | UACC-257 28.1 µM | HOP-92 23.1 µM | SW-620 28.2 µM | SN12C 27.7 µM | 786-0 29.3 µM | SF-268 42.1 µM | OVCAR-3 26.7 µM | NCI-H460 22.8 µM | RPMI-8226 13.1 µM | OVCAR-4 20.7 µM | SK-MEL-5 20.1 µM | NCI-H522 16.5 µM | EKVX 33 µM

CCOC(=O)C1CC/C(=C(/C#N)C(=O)OC)N1 (stereo not drawn)
inactive: HL-60 > 100 µM | COLO 205 > 100 µM | SF-295 > 100 µM | HCC 2998 > 100 µM | SK-MEL-2 > 100 µM | LOX IMVI > 100 µM | UACC-257 > 100 µM | HOP-92 > 100 µM | SW-620 > 100 µM | SN12C > 100 µM | 786-0 > 100 µM | SF-268 > 100 µM | OVCAR-3 > 100 µM | NCI-H460 > 100 µM | RPMI-8226 > 100 µM | OVCAR-4 > 100 µM | SK-MEL-5 > 100 µM | NCI-H522 > 100 µM | EKVX > 100 µM

COc1ccc2nccc(C3=CCC4CCN(C(=O)c5ccccc5)C3C4)c2c1 (stereo not drawn)
inactive: HL-60 51.6 µM | COLO 205 > 100 µM | SF-295 > 100 µM | HCC 2998 > 100 µM | SK-MEL-2 > 100 µM | LOX IMVI > 100 µM | UACC-257 > 100 µM | HOP-92 > 100 µM | SW-620 > 100 µM | SN12C > 100 µM | 786-0 > 100 µM | SF-268 > 100 µM | OVCAR-3 86.9 µM | NCI-H460 > 100 µM | RPMI-8226 46.1 µM | OVCAR-4 81.8 µM | SK-MEL-5 93.3 µM | NCI-H522 > 100 µM | EKVX > 100 µM

CC(C)(C=O)CC(C#N)/C(=N\NC(N)=O)C(=O)Nc1ccccc1C(N)=O (stereo not drawn)
inactive: HL-60 > 100 µM | SF-295 > 100 µM | HCC 2998 > 100 µM | SK-MEL-2 > 100 µM | LOX IMVI > 100 µM | UACC-257 > 100 µM | HOP-92 38.6 µM | SW-620 > 100 µM | SN12C > 100 µM | 786-0 > 100 µM | SF-268 > 100 µM | OVCAR-3 > 100 µM | NCI-H460 > 100 µM | RPMI-8226 > 100 µM | OVCAR-4 > 100 µM | SK-MEL-5 > 100 µM | NCI-H522 > 100 µM | EKVX > 100 µM

CC1(C)CC(=O)C=C(NC(=O)c2ccccc2)C1
inactive: HL-60 > 100 µM | COLO 205 > 100 µM | SF-295 > 100 µM | HCC 2998 > 100 µM | SK-MEL-2 > 100 µM | LOX IMVI > 100 µM | UACC-257 > 100 µM | HOP-92 > 100 µM | SW-620 > 100 µM | SN12C > 100 µM | 786-0 > 100 µM | SF-268 > 100 µM | OVCAR-3 > 100 µM | NCI-H460 > 100 µM | RPMI-8226 > 100 µM | OVCAR-4 > 100 µM | SK-MEL-5 > 100 µM | NCI-H522 > 100 µM | EKVX > 100 µM

CC#CC#C/C=C1\C=CC2(OC=CC2O)O1 (stereo not drawn)
inactive: HL-60 > 14.1 µM | COLO 205 3.28 µM | SF-295 > 23.3 µM | HCC 2998 > 16.2 µM | SK-MEL-2 > 17.8 µM | LOX IMVI 11.9 µM | UACC-257 16 µM | HOP-92 7.13 µM | SW-620 8.28 µM | SN12C > 23.3 µM | 786-0 > 16 µM | SF-268 > 23.3 µM | OVCAR-3 7.52 µM | NCI-H460 > 23.3 µM | RPMI-8226 13.4 µM | OVCAR-4 8.26 µM | SK-MEL-5 > 12.9 µM | NCI-H522 5.65 µM | EKVX > 9.86 µM

S=C1CC(c2ccc(Cl)cc2)Sc2ccccc2N1 (stereo not drawn)
inactive: HL-60 30.5 µM | COLO 205 71.9 µM | SF-295 > 100 µM | MDA-MB-231 30.4 µM | LOX IMVI 40.8 µM | UACC-257 > 100 µM | SN12C 78.5 µM | 786-0 34 µM | SF-268 24.7 µM | OVCAR-3 23.1 µM | NCI-H460 60 µM | RPMI-8226 24.3 µM | OVCAR-4 28.8 µM | SK-MEL-5 25.3 µM | NCI-H522 21.6 µM | EKVX 34 µM

O=C1Cc2c([nH]c3c(Br)cccc23)-c2ccccc2N1
inactive: HL-60 21.5 µM | COLO 205 27.8 µM | SF-295 > 100 µM | MDA-MB-231 33.9 µM | HCC 2998 44.9 µM | SK-MEL-2 > 100 µM | LOX IMVI 25.8 µM | UACC-257 > 100 µM | SW-620 38.1 µM | SN12C 57.9 µM | 786-0 > 100 µM | SF-268 77.1 µM | OVCAR-3 > 100 µM | NCI-H460 45.9 µM | RPMI-8226 32.5 µM | SK-MEL-5 30.1 µM | EKVX > 100 µM
